{"source": "paper PMC6366416", "about": "“Synthesis and in vitro anticancer activity of certain novel 1-(2-methyl-6-arylpyridin-3-yl)-3-phenylureas as apoptosis-inducing agents” (Journal of Enzyme Inhibition and Medicinal Chemistry, 2019)", "key": {"[1]": {"system": "WI-38 cell line", "test": "MTT cytotoxicity towards non-tumorigenic cells", "type": "cell-based, human", "conditions": "for IC50: WI-38, MTT, non-tumorigenic human lung fibroblast, mean ± SD of three experiments; for S. I. WI-38/A549: selectivity index, IC50 WI-38 / IC50 A549", "description": "The cytotoxic activity of all synthesized pyridines 5a–l were assessed against non-tumorigenic human lung fibroblast WI-38 cell line to investigate their safety, using the MTT colorimetric assay."}, "[2]": {"system": "A549 cell line", "test": "MTT anti-proliferative assay", "type": "cell-based", "conditions": "Homo sapiens, 48 h of incubation, mean ± SD of three experiments", "in_short": "(§1)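 A549 and HCT-116 cells grown in DMEM with 10% FBS and 10 μg/mL insulin were treated with compounds; viability read by MTT colorimetric assay, doxorubicin as reference. IC50 from Boltzmann sigmoidal concentration–response fit, three wells per condition, experiments in triplicate.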"}, "[3]": {"system": "HCT-116 cell line", "test": "MTT anti-proliferative assay", "type": "cell-based", "conditions": "Homo sapiens, 48 h of incubation, mean ± SD of three experiments", "in_short": "as §1"}, "[4]": {"system": "A549/ATCC", "test": "NCI one-dose SRB growth inhibition", "type": "cell-based", "conditions": "Homo sapiens, A549, 48 h, Non-Small Cell Lung Cancer, read-out: GI% A549/ATCC", "description": "(§2) The antitumor assay was performed according to the protocol of the Drug Evaluation Branch, NCI, Bethesda[24–26]. A 48 h drug exposure protocol was adopted, and sulforhodamine B (SRB) assay[27] was utilized to assess the cell growth and viability, as reported earlier[17]^,[28].\n(§3) The structures of all the newly synthesized pyridines 5a–l were submitted to the National Cancer Institute (NCI) Developmental Therapeutic Program (www.dtp.nci.nih.gov). […] Nine different types of cancer were tested in this assay: colon, ovarian, prostate, leukemia, melanoma, CNS, renal, breast and lung cancers. A 48 h drug exposure protocol was adopted, and sulforhodamine B (SRB) assay[27] was utilized to assess the cell growth and viability."}, "[5]": {"system": "M14", "test": "NCI one-dose SRB growth inhibition", "type": "cell-based", "conditions": "Homo sapiens, M14, 48 h, Melanoma, read-out: GI% M14", "description": "as §2, §3"}, "[6]": {"system": "SK-MEL-28", "test": "NCI one-dose SRB growth inhibition", "type": "cell-based", "conditions": "Homo sapiens, Melanoma, 48 h, read-out: GI% SK-MEL-28", "description": "as §2, §3"}, "[7]": {"system": "MDA-MB-435", "test": "NCI one-dose SRB growth inhibition", "type": "cell-based", "conditions": "Homo sapiens, Melanoma, 48 h, read-out: GI% MDA-MB-435", "description": "as §2, §3"}, "[8]": {"system": "MDA-MB-468", "test": "NCI one-dose SRB growth inhibition", "type": "cell-based", "conditions": "Homo sapiens, Breast Cancer, 48 h, read-out: GI% MDA-MB-468", "description": "as §2, §3"}, "[9]": {"system": "SW-620", "test": "NCI one-dose SRB growth inhibition", "type": "cell-based", "conditions": "Homo sapiens, Colon Cancer, 48 h, read-out: GI% SW-620", "description": "as §2, §3"}, "[10]": {"system": "KM12", "test": "NCI one-dose SRB growth inhibition", "type": "cell-based", "conditions": "Homo sapiens, Colon Cancer, 48 h, read-out: GI% KM12", "description": "as §2, §3"}, "[11]": {"system": "NCI-H322M", "test": "NCI one-dose SRB growth inhibition", "type": "cell-based", "conditions": "Homo sapiens, Non-Small Cell Lung Cancer, 48 h, read-out: GI% NCI-H322M", "description": "as §2, §3"}, "[12]": {"system": "NCI-H522", "test": "NCI one-dose SRB growth inhibition", "type": "cell-based", "conditions": "Homo sapiens, NCI-H522, 48 h, Non-Small Cell Lung Cancer, read-out: GI% NCI-H522", "description": "as §2, §3"}, "[13]": {"system": "LOX IMVI", "test": "NCI one-dose SRB growth inhibition", "type": "cell-based", "conditions": "Homo sapiens, Melanoma, 48 h, read-out: GI% LOX IMVI", "description": "as §2, §3"}, "[14]": {"system": "OVCAR-4", "test": "NCI one-dose SRB growth inhibition", "type": "cell-based", "conditions": "Homo sapiens, Ovarian Cancer, 48 h, read-out: GI% OVCAR-4", "description": "as §2, §3"}, "[15]": {"system": "HL-60(TB)", "test": "NCI one-dose SRB growth inhibition", "type": "cell-based", "conditions": "Homo sapiens, Leukemia, 48 h, read-out: GI% HL-60(TB)", "description": "as §2, §3"}, "[16]": {"system": "RPMI-8226", "test": "NCI one-dose SRB growth inhibition", "type": "cell-based", "conditions": "Homo sapiens, RPMI-8226, 48 h, Leukemia, read-out: GI% RPMI-8226", "description": "as §2, §3"}, "[17]": {"system": "COLO 205", "test": "NCI one-dose SRB growth inhibition", "type": "cell-based", "conditions": "Homo sapiens, Colon Cancer, 48 h, read-out: GI% COLO 205", "description": "as §2, §3"}, "[18]": {"system": "HCT-15", "test": "NCI one-dose SRB growth inhibition", "type": "cell-based", "conditions": "Homo sapiens, HCT-15, 48 h, Colon Cancer, read-out: GI% HCT-15", "description": "as §2, §3"}, "[19]": {"system": "SNB-19", "test": "NCI one-dose SRB growth inhibition", "type": "cell-based", "conditions": "Homo sapiens, CNS Cancer, 48 h, read-out: GI% SNB-19", "description": "as §2, §3"}, "[20]": {"system": "SF-295", "test": "NCI one-dose SRB growth inhibition", "type": "cell-based", "conditions": "Homo sapiens, CNS Cancer, 48 h, read-out: GI% SF-295", "description": "as §2, §3"}, "[21]": {"system": "NCI-H226", "test": "NCI one-dose SRB growth inhibition", "type": "cell-based", "conditions": "Homo sapiens, Non-Small Cell Lung Cancer, 48 h, read-out: GI% NCI-H226", "description": "as §2, §3"}, "[22]": {"system": "EKVX", "test": "NCI one-dose SRB growth inhibition", "type": "cell-based", "conditions": "Homo sapiens, Non-Small Cell Lung Cancer, 48 h, read-out: GI% EKVX", "description": "as §2, §3"}, "[23]": {"system": "CCRF-CEM", "test": "NCI one-dose SRB growth inhibition", "type": "cell-based", "conditions": "Homo sapiens, Leukemia, 48 h, read-out: GI% CCRF-CEM", "description": "as §2, §3"}, "[24]": {"system": "MCF7", "test": "NCI one-dose SRB growth inhibition", "type": "cell-based", "conditions": "Homo sapiens, Breast Cancer, 48 h, read-out: GI% MCF7", "description": "as §2, §3"}, "[25]": {"system": "OVCAR-8", "test": "NCI one-dose SRB growth inhibition", "type": "cell-based", "conditions": "Homo sapiens, Ovarian Cancer, 48 h, read-out: GI% OVCAR-8", "description": "as §2, §3"}, "[26]": {"system": "SK-MEL-2", "test": "NCI one-dose SRB growth inhibition", "type": "cell-based", "conditions": "Homo sapiens, Melanoma, 48 h, read-out: GI% SK-MEL-2", "description": "as §2, §3"}}}
{"smiles": "Cc1nc(-c2ccc(Cl)cc2)ccc1NC(=O)Nc1cccc(C(F)(F)F)c1", "note": "[Compound 5e, 1-(6-(4-Chlorophenyl)-2-methylpyridin-3-yl)-3-(3-(trifluoromethyl)phenyl)urea]", "values": [{"measurement": "IC50", "setting": "[1]", "result": "130 ± 9.22", "unit": "µM"}, {"measurement": "S. I. WI-38/A549", "setting": "[1]", "result": 11.0}, {"measurement": "IC50", "setting": "[2]", "result": "11.9 ± 0.92", "unit": "µM"}, {"measurement": "IC50", "setting": "[3]", "result": "7.05 ± 0.72", "unit": "µM"}, {"measurement": "melting point", "result": "241 to 242", "unit": "°C"}, {"measurement": "inhibition at 10 µM", "setting": "[4]", "result": 10, "unit": "%"}, {"measurement": "inhibition at 10 µM", "setting": "[5]", "result": "< 10", "unit": "%"}, {"measurement": "inhibition at 10 µM", "setting": "[6]", "result": "< 10", "unit": "%"}, {"measurement": "inhibition at 10 µM", "setting": "[7]", "result": "< 10", "unit": "%"}, {"measurement": "inhibition at 10 µM", "setting": "[8]", "result": "< 10", "unit": "%"}, {"measurement": "inhibition at 10 µM", "setting": "[9]", "result": 11, "unit": "%"}, {"measurement": "inhibition at 10 µM", "setting": "[10]", "result": "< 10", "unit": "%"}, {"measurement": "inhibition at 10 µM", "setting": "[11]", "result": "< 10", "unit": "%"}, {"measurement": "inhibition at 10 µM", "setting": "[12]", "result": 48, "unit": "%"}, {"measurement": "inhibition at 10 µM", "setting": "[13]", "result": "< 10", "unit": "%"}, {"measurement": "inhibition at 10 µM", "setting": "[14]", "result": "< 10", "unit": "%"}, {"measurement": "inhibition at 10 µM", "setting": "[15]", "result": 21, "unit": "%"}, {"measurement": "inhibition at 10 µM", "setting": "[16]", "result": 15, "unit": "%"}, {"measurement": "inhibition at 10 µM", "setting": "[17]", "result": "< 10", "unit": "%"}, {"measurement": "inhibition at 10 µM", "setting": "[18]", "result": 18, "unit": "%"}, {"measurement": "inhibition at 10 µM", "setting": "[19]", "result": "< 10", "unit": "%"}, {"measurement": "inhibition at 10 µM", "setting": "[20]", "result": "< 10", "unit": "%"}, {"measurement": "inhibition at 10 µM", "setting": "[21]", "result": "< 10", "unit": "%"}, {"measurement": "inhibition at 10 µM", "setting": "[22]", "result": "< 10", "unit": "%"}, {"measurement": "inhibition at 10 µM", "setting": "[23]", "result": 22, "unit": "%"}, {"measurement": "inhibition at 10 µM", "setting": "[24]", "result": 20, "unit": "%"}, {"measurement": "inhibition at 10 µM", "setting": "[25]", "result": "< 10", "unit": "%"}, {"measurement": "inhibition at 10 µM", "setting": "[26]", "result": "< 10", "unit": "%"}]}
{"smiles": "COc1ccc(NC(=O)Nc2ccc(-c3ccc(Cl)cc3)nc2C)cc1", "note": "[Compound 5f, 1-(6-(4-Chlorophenyl)-2-methylpyridin-3-yl)-3-(4-methoxyphenyl) urea]", "values": [{"measurement": "IC50", "setting": "[1]", "result": "116 ± 9.61", "unit": "µM"}, {"measurement": "S. I. WI-38/A549", "setting": "[1]", "result": 14.7}, {"measurement": "IC50", "setting": "[2]", "result": "7.9 ± 0.54", "unit": "µM"}, {"measurement": "IC50", "setting": "[3]", "result": "12.6 ± 1.08", "unit": "µM"}, {"measurement": "melting point", "result": "264 to 265", "unit": "°C"}, {"measurement": "inhibition at 10 µM", "setting": "[4]", "result": 25, "unit": "%"}, {"measurement": "inhibition at 10 µM", "setting": "[5]", "result": 38, "unit": "%"}, {"measurement": "inhibition at 10 µM", "setting": "[6]", "result": 13, "unit": "%"}, {"measurement": "inhibition at 10 µM", "setting": "[7]", "result": "< 10", "unit": "%"}, {"measurement": "inhibition at 10 µM", "setting": "[8]", "result": "< 10", "unit": "%"}, {"measurement": "inhibition at 10 µM", "setting": "[9]", "result": "< 10", "unit": "%"}, {"measurement": "inhibition at 10 µM", "setting": "[10]", "result": "< 10", "unit": "%"}, {"measurement": "inhibition at 10 µM", "setting": "[11]", "result": "< 10", "unit": "%"}, {"measurement": "inhibition at 10 µM", "setting": "[12]", "result": 40, "unit": "%"}, {"measurement": "inhibition at 10 µM", "setting": "[13]", "result": 21, "unit": "%"}, {"measurement": "inhibition at 10 µM", "setting": "[14]", "result": "< 10", "unit": "%"}, {"measurement": "inhibition at 10 µM", "setting": "[15]", "result": 12, "unit": "%"}, {"measurement": "inhibition at 10 µM", "setting": "[16]", "result": 14, "unit": "%"}, {"measurement": "inhibition at 10 µM", "setting": "[17]", "result": "< 10", "unit": "%"}, {"measurement": "inhibition at 10 µM", "setting": "[18]", "result": "< 10", "unit": "%"}, {"measurement": "inhibition at 10 µM", "setting": "[19]", "result": "< 10", "unit": "%"}, {"measurement": "inhibition at 10 µM", "setting": "[20]", "result": "< 10", "unit": "%"}, {"measurement": "inhibition at 10 µM", "setting": "[21]", "result": 19, "unit": "%"}, {"measurement": "inhibition at 10 µM", "setting": "[22]", "result": "< 10", "unit": "%"}, {"measurement": "inhibition at 10 µM", "setting": "[23]", "result": 18, "unit": "%"}, {"measurement": "inhibition at 10 µM", "setting": "[24]", "result": 23, "unit": "%"}, {"measurement": "inhibition at 10 µM", "setting": "[25]", "result": "< 10", "unit": "%"}, {"measurement": "inhibition at 10 µM", "setting": "[26]", "result": "< 10", "unit": "%"}]}
